Experimental findings from US20250129078A1, “ERBB2 INHIBITORS” (Cogent Biosciences, Inc., priority 2023, published 2025) are described below.

Each structure is given as a SMILES string. Counter-ions that a name gives are not always drawn. Bounds are passed on as bounds.

The target of this assay is EGFR WT (Homo sapiens (Human), UniProt P00533). As to the kind of experiment: ErbB enzyme assay (CisBio HTRF-KinEASE-TK), EGFR WT. It is filed as biochemical. The conditions noted are these: ATP at Km (25 μM), 1 h incubation. The procedure, abridged:
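IC50 comes from a 4-parameter fit where the curve crosses 50 percent of control, using the 655/620 nm time-resolved fluorescence ratio with DMSO-only and pre-quenched references. Kinase reactions ran 1 h at ambient temperature before Sa-XL665/cryptate-antibody detection (1 h).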
(In general: Time-resolved FRET reads energy transfer from a long-lived donor to a nearby acceptor.)

A word on the IC50: it is the concentration that inhibits the measured activity by half. High values mean a need for much substance, low ones inhibition by little substance.

Sequence of EGFR WT (P00533 25-1210): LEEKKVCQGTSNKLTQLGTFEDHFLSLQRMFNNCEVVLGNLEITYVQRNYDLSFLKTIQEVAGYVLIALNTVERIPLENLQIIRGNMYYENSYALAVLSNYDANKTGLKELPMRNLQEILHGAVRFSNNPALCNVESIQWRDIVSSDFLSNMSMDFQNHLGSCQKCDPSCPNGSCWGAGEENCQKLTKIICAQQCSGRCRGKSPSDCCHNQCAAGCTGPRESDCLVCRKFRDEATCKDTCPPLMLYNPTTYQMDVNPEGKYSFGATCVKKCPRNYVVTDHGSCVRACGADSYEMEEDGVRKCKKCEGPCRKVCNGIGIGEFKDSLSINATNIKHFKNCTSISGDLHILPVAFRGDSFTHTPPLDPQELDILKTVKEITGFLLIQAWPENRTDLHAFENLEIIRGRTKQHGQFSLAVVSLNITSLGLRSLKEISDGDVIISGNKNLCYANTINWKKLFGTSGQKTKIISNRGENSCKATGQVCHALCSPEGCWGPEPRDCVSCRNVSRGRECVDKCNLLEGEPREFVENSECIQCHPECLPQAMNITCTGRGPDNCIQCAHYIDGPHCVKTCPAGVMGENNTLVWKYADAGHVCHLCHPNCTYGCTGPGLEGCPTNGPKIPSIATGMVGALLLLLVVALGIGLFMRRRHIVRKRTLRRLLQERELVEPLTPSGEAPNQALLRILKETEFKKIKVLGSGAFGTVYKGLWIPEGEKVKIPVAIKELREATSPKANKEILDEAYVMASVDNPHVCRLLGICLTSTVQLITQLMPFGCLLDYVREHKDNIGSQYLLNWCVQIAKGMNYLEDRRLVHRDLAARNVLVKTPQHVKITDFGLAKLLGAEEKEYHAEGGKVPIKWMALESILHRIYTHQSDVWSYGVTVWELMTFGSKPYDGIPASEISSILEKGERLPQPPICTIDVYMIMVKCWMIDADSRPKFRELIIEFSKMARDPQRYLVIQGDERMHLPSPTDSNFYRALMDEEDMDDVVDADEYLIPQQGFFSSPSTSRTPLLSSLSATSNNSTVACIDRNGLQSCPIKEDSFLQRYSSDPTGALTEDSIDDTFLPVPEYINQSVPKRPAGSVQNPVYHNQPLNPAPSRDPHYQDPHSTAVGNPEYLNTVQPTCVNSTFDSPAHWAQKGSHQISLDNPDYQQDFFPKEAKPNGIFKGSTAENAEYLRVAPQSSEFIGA

`C=CC(=O)N1CCN(c2ncc3ncnc(Nc4ccc(Oc5cc(F)c6c(c5)ncn6C)c(C)c4F)c3n2)C[C@H]1CC` [Compound 160, (R)-1-(2-ethyl-4-(8-((2-fluoro-4-((7-fluoro-1-methyl-1H-benzo[d]imidazol-5-yl)oxy)-3-methylphenyl)amino)pyrimido[5,4-d]pyrimidin-2-yl)piperazin-1-yl)prop-2-en-1-one] displayed an IC50 below 50 nM.

For the molecule `C=CC(=O)N1CCN(c2ccc3ncnc(Nc4ccc(Oc5ccc6c(c5)ncn6C(F)F)c(C)c4F)c3c2)CC1` [Compound 375, 1-(4-(4-((4-((1-(difluoromethyl)-1H-benzo[d]imidazol-5-yl)oxy)-2-fluoro-3-methylphenyl)amino)quinazolin-6-yl)piperazin-1-yl)prop-2-en-1-one], the IC50 was in the range of 50 to 100 nM.

Consider `C=CC(=O)N1CCN(c2ccc3ncnc(Nc4ccc(Oc5ccc6c(c5)nnn6C)c(C)c4)c3n2)C[C@H]1C` [Compound 73, (R)-1-(2-methyl-4-(4-((3-methyl-4-((1-methyl-1H-benzo[d][1,2,3]triazol-5-yl)oxy)phenyl)amino)pyrido[3,2-d]pyrimidin-6-yl)piperazin-1-yl)prop-2-en-1-one], for which the IC50 is 100 to 500 nM.

As to `C=CC(=O)N1CCN(c2ncc3ncnc(Nc4ccc(Oc5ccc6c(c5)ncn6C(F)F)c(C)c4)c3n2)CC1` [Compound 30, 1-(4-(8-((4-((1-(difluoromethyl)-1H-benzo[d]imidazol-5-yl)oxy)-3-methylphenyl)amino)pyrimido[5,4-d]pyrimidin-2-y1)piperazin-1-yl)prop-2-en-1-one], the IC50 lay within 50 to 100 nM.

Consider `C=CC(=O)N1CCN(c2nc3c(Nc4ccc(Oc5cc(F)c6c(c5)nnn6C)c(C)c4F)ncnc3cc2OC)CC1` [Compound 99, 1-(4-(4-((2-fluoro-4-((7-fluoro-1-methyl-1H-benzo[d][1,2,3]triazol-5-yl)oxy)-3-methylphenyl)amino)-7-methoxypyrido[3,2-d]pyrimidin-6-yl)piperazin-1-yl)prop-2-en-1-one], for which the IC50 is below 50 nM.

In turn, `C=CC(=O)N1CC(Oc2ncc3ncnc(Nc4ccc(Oc5cc(F)c6c(c5)ncn6C)c(C)c4)c3n2)C1` [Compound 388, 1-(3-((8-((4-((7-fluoro-1-methyl-1H-benzo[d]imidazol-5-yl)oxy)-3-methylphenyl)amino)pyrimido[5,4-d]pyrimidin-2-yl)oxy)azetidin-1-yl)prop-2-en-1-one] had an IC50 below 50 nM.

`C=CC(=O)N1CCCN(c2ncc3ncnc(Nc4ccc(Oc5ccc6c(c5)nnn6C)c(C)c4)c3n2)C[C@H]1C` [Compound 227, (R)-1-(2-methyl-4-(8-((3-methyl-4-((1-methyl-1H-benzo[d][1,2,3]triazol-5-yl)oxy)phenyl)amino)pyrimido[5,4-d]pyrimidin-2-yl)-1,4-diazepan-1-yl)prop-2-en-1-one]: the 50% inhibitory concentration (IC50) was at least 1000 nM.

On to `C=CC(=O)N1CC2CCC(C1)N2c1ccc2ncnc(Nc3ccc(Oc4ccc5c(c4)nnn5C)c(C)c3)c2n1` [Compound 71, 1-(8-(4-((3-methyl-4-((1-methyl-1H-benzo[d][1,2,3]triazol-5-yl)oxy)phenyl)amino)pyrido[3,2-d]pyrimidin-6-yl)-3,8-diazabicyclo[3.2.1]octan-3-yl)prop-2-en-1-one], for which the concentration for half-maximal inhibition (IC50) is below 50 nM.

Regarding `C=CC(=O)N1CC[C@@H](Oc2ncc3ncnc(Nc4ccc(Oc5cc(F)c6c(c5)ncn6C)c(C)c4)c3n2)C1` [Compound 385, (R)-1-(3-((8-((4-((7-fluoro-1-methyl-1H-benzo[d]imidazol-5-yl)oxy)-3-methylphenyl)amino)pyrimido[5,4-d]pyrimidin-2-yl)oxy)pyrrolidin-1-yl)prop-2-en-1-one], the half-inhibitory concentration (IC50) was 100 to 500 nM.

Take `C=CC(=O)N[C@@H]1C[C@H](C)CN(c2ncc3ncnc(Nc4ccc(Oc5ccc6c(c5)nnn6C)c(C)c4F)c3n2)C1` (single isomer, unassigned) [Compound 203]: the half-inhibitory concentration (IC50) was at least 1000 nM.

The molecule `Cc1cc(Nc2ncnc3cnc(N4CCN(C(=O)/C=C/C(F)F)CC4)nc23)ccc1Oc1ccc2c(c1)nnn2C` [Compound 216, 4,4-difluoro-1-(4-(8-((3-methyl-4-((1-methyl-1H-benzo[d][1,2,3]triazol-5-yl)oxy)phenyl)amino)pyrimido [5,4-d]pyrimidin-2-yl)piperazin-1-yl)but-2-en-1-one] came in with an IC50 of 50 to 100 nM.

`C=CC(=O)N1C2C=C(c3ccc4ncnc(Nc5ccc(Oc6ccc7c(c6)nnn7C)c(C)c5)c4n3)CC1COC2` (centres unmarked) [Compound 408, 1-(7-(4-((3-methyl-4-((1-methyl-1H-benzo[d][1,2,3]triazol-5-yl)oxy)phenyl)amino)pyrido[3,2-d]pyrimidin-6-yl)-3-oxa-9-azabicyclo[3.3.1]non-6-en-9-yl)prop-2-en-1-one trifluoroacetate] displayed an IC50 of 100 to 500 nM.

Molecule `C=CC(=O)N1CCN(c2ccc3ncnc(Nc4ccc(Oc5cc(F)c6c(c5)nnn6C)c(C)c4)c3n2)C[C@H]1C` [Compound 254, (R)-1-(4-(4-((4-((7-fluoro-1-methyl-1H-benzo[d][1,2,3]triazol-5-yl)oxy)-3-methylphenyl)amino)pyrido[3,2-d]pyrimidin-6-yl)-2-methylpiperazin-1-yl)prop-2-en-1-one] showed an IC50 of 50 to 100 nM.

The molecule `C=CC(=O)N1CCC(Oc2nc3c(Nc4ccc(Oc5ccc6c(c5)ncn6C)c(C)c4F)ncnc3cc2OC)CC1` [Compound 394, 1-(4-((4-((2-fluoro-3-methyl-4-((1-methyl-1H-benzo[1d]imidazol-5-yl)oxy)phenyl)amino)-7-methoxypyrido[3,2-d]pyrimidin-6-yl)oxy)piperidin-1-yl)prop-2-en-1-one] had an IC50 below 50 nM.

Consider `C=CC(=O)N1CCN(c2ncc3ncnc(Nc4ccc(Oc5cc(F)c6c(c5)ncn6C)c(C)c4)c3n2)C[C@H]1C` [Compound 159, (R)-1-(4-(8-((4-((7-fluoro-1-methyl-1H-benzo[d]imidazol-5-yl)oxy)-3-methylphenyl)amino)pyrimido[5,4-d]pyrimidin-2-yl)-2-methylpiperazin-1-yl)prop-2-en-1-one], for which the half-maximal inhibitory concentration (IC50) is 50 to 100 nM.

With `C=CC(=O)N1CCN(c2ncc3ncnc(Nc4ccc(Oc5ccc6c(c5)nnn6C)c(C(F)(F)F)c4)c3n2)CC1` [Compound 43, 1-(4-(8-((4-((1-methyl-1H-benzo[d][1,2,3]triazol-5-yl)oxy)-3-(trifluoromethyl)phenyl)amino)pyrimido[5,4-d]pyrimidin-2-yl)piperazin-1-yl)prop-2-en-1-one], the concentration for half-maximal inhibition (IC50) was in the range of 100 to 500 nM.

`C=CC(=O)N[C@@H]1C[C@@H](C)CN(c2ncc3ncnc(Nc4ccc(Oc5ccc6c(c5)nnn6C)c(C)c4F)c3n2)C1` (single isomer, unassigned) [Compound 201] gave an IC50 of at least 1000 nM.

As to `C=CC(=O)N1CCN(c2ncc3ncnc(Nc4ccc(Oc5ccc6c(c5)nnn6C)c(C)c4)c3n2)C[C@@H]1COC` [Compound 116, (R)-1-(2-(methoxymethyl)-4-(8-((3-methyl-4-((1-methyl-1H-benzo[d][1,2,3]triazol-5-yl)oxy)phenyl)amino)pyrimido[5,4-d]pyrimidin-2-y1)piperazin-1-yl)prop-2-en-1-one], the IC50 is 100 to 500 nM.

For the molecule `C=C(COC)C(=O)N1CCN(c2ncc3ncnc(Nc4ccc(Oc5ccc6c(c5)nnn6C)c(C)c4)c3n2)CC1` [Compound 54, 2-(methoxymethyl)-1-(4-(8-((3-methyl-4-((1-methyl-1H-benzo[d][1,2,3]triazol-5-yl)oxy)phenyl)amino)pyrimido [5,4-d]pyrimidin-2-yl)piperazin-1-yl) prop-2-en-1-one], the IC50 was at least 1000 nM.

`C=CC(=O)N1CCN(c2ccc3ncnc(Nc4cc(F)c(Oc5ccc6c(c5)nnn6C)c(Cl)c4)c3n2)C[C@H]1C` [Compound 252, (R)-1-(4-(4-((3-chloro-5-fluoro-4-((1-methyl-1H-benzo[d][1,2,3]triazol-5-yl)oxy)phenyl)amino)pyrido[3,2-d]pyrimidin-6-yl)-2-methylpiperazin-1-yl)prop-2-en-1-one] displayed an IC50 of 50 to 100 nM.

`C=CC(=O)N1CCN(c2ncc3ncnc(Nc4ccc(Oc5ccc6c(c5)nnn6C)c(C)c4)c3n2)C[C@H]1CF` (single isomer, unassigned) [Compound 198] gave an IC50 of 100 to 500 nM.

In the case of `C=CC(=O)N1CCN(c2ccc3ncnc(Nc4cc(C)c(Oc5ccc6c(c5)nnn6C)cc4OC(F)F)c3n2)C[C@H]1C` [Compound 302, (R)-1-(4-(4-((2-(difluoromethoxy)-5-methyl-4-((1-methyl-1H-benzo[d][1,2,3]triazol-5-yl)oxy)phenyl)amino)pyrido[3,2-d]pyrimidin-6-yl)-2-methylpiperazin-1-yl)prop-2-en-1-one], the half-maximal inhibitory concentration (IC50) fell in the range of 100 to 500 nM.

As for `C=CC(=O)N1CC[C@H](Oc2ncc3ncnc(Nc4ccc(Oc5cc(F)c6c(c5)ncn6C)c(C)c4)c3n2)C1` [Compound 389, (S)-1-(3-((8-((4-((7-fluoro-1-methyl-1H-benzo[d]imidazol-5-yl)oxy)-3-methylphenyl)amino)pyrimido[5,4-d]pyrimidin-2-yl)oxy)pyrrolidin-1-yl)prop-2-en-1-one], the IC50 is below 50 nM.

In the case of `C=CC(=O)N1CCN(c2ccc3ncnc(Nc4cc(C)c(Oc5cc(F)c6c(c5)ncn6C)cc4OC)c3n2)C[C@H]1C` [Compound 310, (R)-1-(4-(4-((4-((7-fluoro-1-methyl-1H-benzo[d]imidazol-5-yl)oxy)-2-methoxy-5-methylphenyl)amino)pyrido[3,2-d]pyrimidin-6-yl)-2-methylpiperazin-1-yl)prop-2-en-1-one], the IC50 lay within 100 to 500 nM.

As for `C=CC(=O)N1CC[C@H](N(C)c2ncc3ncnc(Nc4ccc(Oc5ccc6c(c5)nnn6C)c(C)c4)c3n2)C1` [Compound 131, (S)-1-(3-(methyl(8-((3-methyl-4-((1-methyl-1H-benzo[d][1,2,3]triazol-5-yl)oxy)phenyl)amino)pyrimido[5,4-d]pyrimidin-2-yl)amino)pyrrolidin-1-yl)prop-2-en-1-one], the IC50 was below 50 nM.

As to `Cc1cc(Nc2ncnc3cnc(N4CCN(C(=O)/C=C/C(F)(F)F)CC4)nc23)ccc1Oc1ccc2c(c1)nnn2C` [Compound 217, 4,4,4-trifluoro-1-(4-(8-((3-methyl-4-((1-methyl-1H-benzo[d][1,2,3]triazol-5-yl)oxy)phenyl)amino)pyrimido [5,4-d]pyrimidin-2-yl)piperazin-1-yl) but-2-en-1-one], the IC50 was below 50 nM.
